Key:
[1] = Solubility of crystal Forms in pH 6.8 buffer (1 hour equilibration, filtration, HPLC); assay type: physicochemical; conditions: for Solubility in pH 6.8 buffer: 20 mg in 1 mL, equilibrated for 1 hour, 0.45 μm filter, HPLC; for solubility in pH 6.8 buffer compared to existing crystal Forms: comparison with crystal Forms A and B
Procedure: The solubility of several new crystal Forms prepared in the above examples and Form A and B (prepared according to the method of WO2014128588A1) in a pH buffer solution (pH 6.8) was determined. 20 mg Form VIII, Form IX, Form XIV, Form A and Form B was precisely weighed and placed in a 2-mL glass vial, 1 mL of pH 6.8 buffer was added, sealed with cap, and mixed on a rotating mixer. After the suspension was equilibrated for 1 hour, the mixture was filtered through a 0.45 μm needle filter, and the concentration of 6-Acetyl-8-cyclopentyl-5-methyl-2-(5-piperazin-1-yl-pyridin-2-ylamino)-8H-pyrido[2,3-d]pyrimidin-7-one in the filtrate was analyzed by HPLC to obtain the solubility of different crystal Forms. The solubility of the polymorphs of 6-Acetyl-8-cyclopentyl-5-methyl-2-(5-piperazin-1-yl-pyridin-2-ylamino)-8H-pyrido[2,3-d]pyrimidin-7-one is shown in the following table: […]

[2] = Dissolution rate in pH 6.8 buffer; assay type: physicochemical; conditions: comparison with crystal Forms A and B
[3] = prior art statement; cited from earlier work

Solubility in pH 6.8 buffer [1]	SMILES	solubility in pH 6.8 buffer compared to existing crystal Forms [1]	dissolution rate in pH 6.8 buffer compared to existing crystal Forms [2]	solubility in water [3]
0.010 mg/mL	CC(=O)c1c(C)c2cnc(Nc3ccc(N4CCNCC4)cn3)nc2n(C2CCCC2)c1=O [Form VIII, 6-Acetyl-8-cyclopentyl-5-methyl-2-(5-piperazin-1-yl-pyridin-2-ylamino)-8H-pyrido[2,3-d]pyrimidin-7-one]	greater than the existing crystal Forms A and B	greater than the existing crystal Forms A and B	–
0.002 mg/mL	CC(=O)c1c(C)c2cnc(Nc3ccc(N4CCNCC4)cn3)nc2n(C2CCCC2)c1=O [Form A, 6-Acetyl-8-cyclopentyl-5-methyl-2-(5-piperazin-1-yl-pyridin-2-ylamino)-8H-pyrido[2,3-d]pyrimidin-7-one, reference compound]	–	–	very small
0.015 mg/mL	CC(=O)c1c(C)c2cnc(Nc3ccc(N4CCNCC4)cn3)nc2n(C2CCCC2)c1=O [Form IX, 6-Acetyl-8-cyclopentyl-5-methyl-2-(5-piperazin-1-yl-pyridin-2-ylamino)-8H-pyrido[2,3-d]pyrimidin-7-one]	–	–	–
0.003 mg/mL	CC(=O)c1c(C)c2cnc(Nc3ccc(N4CCNCC4)cn3)nc2n(C2CCCC2)c1=O [Form B, 6-Acetyl-8-cyclopentyl-5-methyl-2-(5-piperazin-1-yl-pyridin-2-ylamino)-8H-pyrido[2,3-d]pyrimidin-7-one, reference compound]	–	–	very small
0.012 mg/mL	CC(=O)c1c(C)c2cnc(Nc3ccc(N4CCNCC4)cn3)nc2n(C2CCCC2)c1=O [Form XIV, 6-Acetyl-8-cyclopentyl-5-methyl-2-(5-piperazin-1-yl-pyridin-2-ylamino)-8H-pyrido[2,3-d]pyrimidin-7-one]	greater than the existing crystal Forms A and B	greater than the existing crystal Forms A and B	–
–	CC(=O)c1c(C)c2cnc(Nc3ccc(N4CCNCC4)cn3)nc2n(C2CCCC2)c1=O [Form XI, 6-Acetyl-8-cyclopentyl-5-methyl-2-(5-piperazin-1-yl-pyridin-2-ylamino)-8H-pyrido[2,3-d]pyrimidin-7-one]	greater than the existing crystal Forms A and B	greater than the existing crystal Forms A and B	–

Reference: US10544142B2, “Crystal forms of palbociclib, and preparation method and use therefor” (SHANGHAI BEGREAT PHARMATECH, priority 2016, dated 2020)
